From patent publication EP4663632A1, “COMPOUNDS USEFUL FOR THE MODULATION OF THE ACTIVITY OF STING” (Sulis Therapeutics ApS, priority 2024, dated 2025)

Key:
[1] = biological target: C-terminal domain (CTD) of human STING (Homo sapiens, UniProt Q86WV6); assay: STING binding FP assay III; parameters: recombinant human STING protein (155-379); settings: 10 nM STING (FP assay III according to the text); read-out: STING binding FP assay II, IC50
Experimental: The interaction between molecules and the C-terminal domain (CTD) of human STING was evaluated using a competition binding assay. In this assay, recombinant human STING protein (155-379) and a STING binding fluorescent probe were employed. Upon binding of the probe to STING, the rotation of the fluorescent probe is slowed due to the larger molecular size of the protein-bound complex. As a result, emitted light retains its plane of polarization, leading to an increase in fluorescence polarization. Molecules competing for the probe binding site displace the probe, which leads to rapid randomization of the polarization plane of the emitted light and a subsequent decrease in measured fluorescence polarization signal. Change in polarization was measured, allowing a comparative evaluation of the binding affinities of different compounds to the target protein.
The assay was performed in 96-well plates (ThermoFisher, cat.# 237108) containing 100µl : 10 µL test compound in 10% DMSO and buffer A (150 mM NaCl, 50 mM HEPES pH 7.5, 1 mM DTT) + 90 µL prepared master mix solution of: 4 nM fluorescein-labelled STING ligand (Probe 1; synthesis described above) in buffer A + 0.055% Tween-20 (v/v) and 35 nM STING in buffer A. Post mixing, plates were agitated at 600rpm and incubated for 20 min at room temperature. Subsequent measurements of the fluorescence polarization signal were made on a BioTek Synergy-H1 plate reader, using a polarization filter; Exc: 485/20 nm, Em: […]) with a gain-setting of 75. IC50 values were determined using a standard non-linear regression four-parameter curve fit in Graphpad Prism.
The procedure for STING binding FP assay III is the same as described for STING binding FP assay I, except for a lower STING concentration. In STING binding FP assay III, a concentration of 10 nM STING in buffer A was used.

[2] = biological target: STING (Homo sapiens, UniProt Q86WV6); assay: Western Blot analysis of inhibition of STING activation in HFF-1 cells; format: cell-based; parameters: host or cells: HFF-1 human foreskin fibroblasts; settings: for STING, TBK1 and IRF1 phosphorylation: 2 h or 5 h; for phosphorylation of STING, IRF1 or TBK1 (agonism): compound as single agent, no activation
Sequence of STING (Q86WV6 whole entry, the tested form may be a part): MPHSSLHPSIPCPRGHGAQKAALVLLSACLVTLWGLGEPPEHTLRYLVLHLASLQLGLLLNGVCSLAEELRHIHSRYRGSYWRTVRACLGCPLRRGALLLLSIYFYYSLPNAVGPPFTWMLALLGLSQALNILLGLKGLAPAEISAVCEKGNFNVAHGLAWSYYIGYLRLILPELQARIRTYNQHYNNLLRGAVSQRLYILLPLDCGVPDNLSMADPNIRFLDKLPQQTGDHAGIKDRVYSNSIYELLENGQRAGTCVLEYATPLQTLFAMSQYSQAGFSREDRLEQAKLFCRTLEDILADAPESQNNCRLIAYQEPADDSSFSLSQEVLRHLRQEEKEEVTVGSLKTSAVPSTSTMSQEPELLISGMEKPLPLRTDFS
Experimental: To assess whether S1 STING ligands inhibit STING activation, primary human skin fibroblasts (Figure 5) or HFF-1 cells (Figure 6) were treated with various compounds which comprise only an S1 ligand domain and a Linker domain before undergoing Western Blot analysis as described below.
The cells were lysed and analysed on WB. […] The WB membrane was probed for p-STING, STING, p-IRF3, p-TBK1, and Vinculin.

[3] = 5 µM for 15 min prior to 300 nM diABZI
[4] = 5 µM for 15 min prior to 8 µg/mL cGAMP

Sequence of C-terminal domain (CTD) of human STING (Q86WV6 155-379): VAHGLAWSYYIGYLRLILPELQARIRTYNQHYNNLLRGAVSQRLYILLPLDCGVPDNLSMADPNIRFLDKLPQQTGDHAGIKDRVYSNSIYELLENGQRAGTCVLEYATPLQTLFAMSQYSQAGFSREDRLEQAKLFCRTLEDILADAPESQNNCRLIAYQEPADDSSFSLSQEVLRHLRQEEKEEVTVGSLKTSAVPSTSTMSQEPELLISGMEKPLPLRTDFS

Compound	IC50 [1] [nM]	STING, TBK1 and IRF1 phosphorylation [2, 3]	STING, TBK1 and IRF1 phosphorylation [2, 4]	phosphorylation of STING, IRF1 or TBK1 (agonism) [2]
CCn1nc(C)cc1C(=O)N=c1n(C)c2cc(C(N)=O)ccc2n1CCC(CCn1c(=NC(=O)c2cc(C)nn2CC)n(C)c2cc(C(N)=O)ccc21)OCC(=O)NCCOCCOCCOCCOCCOCC(=O)N[C@H]1C[C@@H](C(=O)N[C@@H]2CCCc3ccccc32)N(C(=O)[C@@H](NC(=O)[C@H](C)NC)C2CCCCC2)C1 (some centres unmarked) [Example 13]	4.1			
CCn1nc(C)cc1C(=O)N=c1n(C)c2cc(C(N)=O)ccc2n1CCC(CCn1c(=NC(=O)c2cc(C)nn2CC)n(C)c2cc(C(N)=O)ccc21)OCC(=O)NCCOCCOCCOCCOCCC(=O)NCCOCCOCCOCC(=O)N[C@H]1C[C@@H](C(=O)N[C@@H]2CCCc3ccccc32)N(C(=O)[C@@H](NC(=O)[C@H](C)NC)C2CCCCC2)C1 (some centres unmarked) [Example 18]	3.5			
CCn1nc(C)cc1C(=O)N=c1n(C)c2cc(C(N)=O)ccc2n1CCC(CCn1c(=NC(=O)c2cc(C)nn2CC)n(C)c2cc(C(N)=O)ccc21)OCC(=O)N1CCC[C@H]1c1ccccc1 (stereo partly drawn) [Example A25, 1-(3-{2-[(S)-2-Phenyl-1-pyrrolidinyl]-2-oxoethoxy}-5-{5-carbamoyl-2-[(1-ethyl-3-methyl-5-pyrazolyl)carbonylimino]-3-methyl-2,3-dihydro-1H-1,3-benzimidazol-1-yl}pentyl)-2-[(1-ethyl-3-methyl-5-pyrazolyl)carbonylimino]-3-methyl-2,3-dihydro-1H-1,3-benzimidazole-5-carboxamide]		lower compared to cells treated with diABZI c3 alone	lower compared to cells treated with cGAMP alone (with the exception of TBK1 in lane A25)	no phosphorylation of STING, IRF1 or TBK1 was observed
CCn1nc(C)cc1C(=O)N=c1n(C)c2cc(C(N)=O)ccc2n1CCC(CCn1c(=NC(=O)c2cc(C)nn2CC)n(C)c2cc(C(N)=O)ccc21)OCC(=O)N1CCC[C@H]1C(=O)N1CCc2cc(OC)ccc2C1 (stereo partly drawn) [Example A26, 1-[3-(2-{(S)-2-[(6-Methoxy-1,2,3,4-tetrahydro-2-isoquinolyl)carbonyl]-1-pyrrolidinyl}-2-oxoethoxy)-5-{5-carbamoyl-2-[(1-ethyl-3-methyl-5-pyrazolyl)carbonylimino]-3-methyl-2,3-dihydro-1H-1,3-benzimidazol-1-yl}pentyl]-2-[(1-ethyl-3-methyl-5-pyrazolyl)carbonylimino]-3-methyl-2,3-dihydro-1H-1,3-benzimidazole-5-carboxamide]		lower compared to cells treated with diABZI c3 alone	lower compared to cells treated with cGAMP alone	no phosphorylation of STING, IRF1 or TBK1 was observed
N-(2-{1-[4-(N-2,6-Dioxo-3-piperidylcarbamoyl)-3-chlorophenyl]-4-piperidyl}ethyl)15-{[(3-{5-carbamoyl-2-[(1-ethyl-3-methyl-5-pyrazolyl)carbonylimino]-3-methyl-2,3-dihydro-1H-1 ,3-benzimidazol-1-yl}-1-(2-{5-carbamoyl-2-[(1-ethyl-3-methyl-5-pyrazolyl)carbonylimino]-3-methyl-2,3-dihydro-1H-1 ,3-benzimidazol-1-yl}ethyl)propoxy)methyl]carbonylamino}-4,7,10,13-tetraoxapentadecanamide [Example 37]	3.7			

Continued, in another order:

IC50 [1] [nM]	Compound	STING, TBK1 and IRF1 phosphorylation [2, 3]	STING, TBK1 and IRF1 phosphorylation [2, 4]	phosphorylation of STING, IRF1 or TBK1 (agonism) [2]
2.2	CCn1nc(C)cc1C(=O)Nc1nc2cc(C(N)=O)ccc2n1CCC(CCn1c(NC(=O)c2cc(C)nn2CC)nc2cc(C(N)=O)ccc21)OCC(=O)NCCOCCOCCOCC(=O)N[C@H](C(=O)N1C[C@H](O)C[C@H]1C(=O)NCc1ccc(-c2scnc2C)cc1)C(C)(C)C [Example 4, N-[(S)-1-{[(2S,4R)-4-Hydroxy-2-({[p-(4-methyl-1,3-thiazol-5-yl)phenyl]methyl}carbamoyl)-1-pyrrolidinyl]carbonyl}-2,2-dimethylpropyl]11-[({3-[5-carbamoyl-2-(1-ethyl-3-methyl-5-pyrazolylcarbonylamino)-1H-1,3-benzimidazol-1-yl]-1-{2-[5-carbamoyl-2-(1-ethyl-3-methyl-5-pyrazolylcarbonylamino)-1H-1,3-benzimidazol-1-yl]ethyl}propoxy}methyl)carbonylamino]-3,6,9-trioxaundecanamide]			
3.7	CCn1nc(C)cc1C(=O)N=c1n(C)c2cc(C(N)=O)ccc2n1CCC(CCn1c(=NC(=O)c2cc(C)nn2CC)n(C)c2cc(C(N)=O)ccc21)OCC(=O)NCCOCCOCCOCCOCCC(=O)NCCOCCNc1ccc(C(=O)NC2CCC(=O)NC2=O)c(OC)c1 (centres unmarked) [Example 34, N-(2-{2-[4-(N-2,6-Dioxo-3-piperidylcarbamoyl)-3-anisidino]ethoxy}ethyl)15-{[(3-{5-carbamoyl-2-[(1-ethyl-3-methyl-5-pyrazolyl)carbonylimino]-3-methyl-2,3-dihydro-1H-1 ,3-benzimidazol-1-yl}-1-(2-{5-carbamoyl-2-[(1-ethyl-3-methyl-5-pyrazolyl)carbonylimino]-3-methyl-2,3-dihydro-1H-1 ,3-benzimidazol-1-yl}ethyl)propoxy)methyl]carbonylamino}-4,7,10,13-tetraoxapentadecanamide]			
10.3	CCn1nc(C)cc1C(=O)N=c1n(C)c2cc(C(N)=O)ccc2n1CCC(CCn1c(=NC(=O)c2cc(C)nn2CC)n(C)c2cc(C(N)=O)ccc21)OCC(=O)NCCOCCOCCOCCOCCC(=O)NCCC1CCN(c2ccc(C(=O)NC3CCC(=O)NC3=O)c(OC)c2)CC1 (centres unmarked) [Example 35, N-(2-{1-[4-(N-2,6-Dioxo-3-piperidylcarbamoyl)-3-methoxyphenyl]-4-piperidyl}ethyl)15-{[(3-{5-carbamoyl-2-[(1-ethyl-3-methyl-5-pyrazolyl)carbonylimino]-3-methyl-2,3-dihydro-1H-1 ,3-benzimidazol-1-yl}-1-(2-{5-carbamoyl-2-[(1-ethyl-3-methyl-5-pyrazolyl)carbonylimino]-3-methyl-2,3-dihydro-1H-1 ,3-benzimidazol-1-yl}ethyl)propoxy)methyl]carbonylamino}-4,7,10,13-tetraoxapentadecanamide]			
10	CCn1nc(C)cc1C(=O)N=c1n(C)c2cc(C(N)=O)ccc2n1CCC(CCn1c(=NC(=O)c2cc(C)nn2CC)n(C)c2cc(C(N)=O)ccc21)OCC(=O)NCCOCCOCCOCCOCCC(=O)N1CCN(C2CCN(c3ccc(C(=O)NC4CCC(=O)NC4=O)c(OC)c3)CC2)CC1 (centres unmarked) [Example 36, N-[15-(4-{1-[4-(N-2,6-Dioxo-3-piperidylcarbamoyl)-3-methoxyphenyl]-4-piperidyl}-1-piperazinyl)-15-oxo-3,6,9,12-tetraoxapentadecyl](3-{5-carbamoyl-2-[(1-ethyl-3-methyl-5-pyrazolyl)carbonylimino]-3-methyl-2,3-dihydro-1H-1 ,3-benzimidazol-1-yl}-1-(2-{5-carbamoyl-2-[(1-ethyl-3-methyl-5-pyrazolyl)carbonylimino]-3-methyl-2,3-dihydro-1 H-1 ,3-benzimidazol-1-yl}ethyl)propoxy)acetamide]			
2.6	CCn1nc(C)cc1C(=O)N=c1n(C)c2cc(C(N)=O)ccc2n1CCC(CCn1c(=NC(=O)c2cc(C)nn2CC)n(C)c2cc(C(N)=O)ccc21)OCC(=O)NCCOCCOCCOCCOCCC(=O)NCCC1CCN(c2ccc(C(=O)NC3CCC(=O)NC3=O)c(F)c2)CC1 (centres unmarked) [Example 38, N-(2-{1-[4-(N-2,6-Dioxo-3-piperidylcarbamoyl)-3-fluorophenyl]-4-piperidyl}ethyl)15-{[(3-{5-carbamoyl-2-[(1-ethyl-3-methyl-5-pyrazolyl)carbonylimino]-3-methyl-2,3-dihydro-1 H-1 ,3-benzimidazol-1-yl}-1-(2-{5-carbamoyl-2-[(1-ethyl-3-methyl-5-pyrazolyl)carbonylimino]-3-methyl-2,3-dihydro-1 H-1 ,3-benzimidazol-1-yl}ethyl)propoxy)methyl]carbonylamino}-4,7,10,13-tetraoxapentadecanamide]			
